Measured values as given in patent US12565665B2, “Compositions and methods for controlled mRNA translation and stability” (TRUSTEES OF BOSTON UNIVERSITY, priority 2022, dated 2026).

Tests used:
Format in all cases: cell-based, human
AUA reporter = assay: Creation of a START codon (AUA to AUI), EGFPd2/dTomato reporter, flow cytometry; conditions: 48 hours post-transfection, n=3
Description: To test this, an ADAR substrate was designed composed of a dsRNA hairpin containing both an AUA-codon with a mismatch at the second adenine to promote specific deamination to AUI (as opposed to IUA or IUI) and an MS2 operator motif (see e.g., FIG. 26b). The design of one large dsRNA hairpin was chosen to promote correct folding of RNA secondary structures. Previous studies have shown that MS2 operators in the 5′UTR of eukaryotic mRNA can lead to decreased translational efficiency when co-expressed with its corresponding coat protein (MS2 coat protein, or MCP), so high and low affinity variants of the MS2 operator (called here MS2-C and MS2-A respectively for the base at the stem loop) were tested with the idea that the lower affinity MS2-A loop would be less likely to inhibit translation by coat protein alone. As positive controls, the same loops were also designed with the correct AUG start codon.
These designs were cloned into pcDNA3 vectors containing a bidirectional CMV promoter driving constitutive dTomato and EGFPd2 (see e.g., FIG. 26c). The S′UTR and start codon of EGFPd2 were replaced with the editable start codon designs so the translational efficiency could be measured by looking at the EGFPd2 fluorescence relative to dTomato when co-expressed with MCP-ADAR. In this construct, if the correct start codon is skipped, the next AUG codon leads to a short, out of frame translation product.
HEK293FT cells were co-transfected with each of the reporter constructs (MS2-C w/ AUG start, MS2-C w/ AUA start, MS2-A w/ AUG start, and MS2-A w/ AUA start) and either filler DNA, inactivated ADAR2-DD (E396A) fused to MCP (MCP-dADAR), or active ADAR2-DD (E488Q) fused to MCP (MCP-ADAR). 48 hours post-transfection, cells were lifted and analyzed by flow cytometry. Transfected cells were gated by dTomato, and the median EGFPd2-to-dTomato ratio for the population was calculated per replicate (n=3) by FLOWJO. 2-Way ANOVA was performed to determine significance.

T2A (G18R) construct = assay: Sense codon editing (AGG to IGG) of T2A (G18R), UAS-H2B-mCherry reporter cells, flow cytometry; conditions: 30 ng ADAR construct, n=3
Description: To test inducible ADAR recoding of a protein's amino acid composition, a construct was designed that contained: a CD8 signal peptide, an HA epitope tag, the self-labeling Halo Tag, a mutant variant of the thosea asigna virus 2A self-cleaving peptide that is defective for ribosome skipping (Gly 18Arg mutation), the DNA binding domain of Gal4, and a 4× repeat of the transcriptional activation domain from herpes virus (VP64) (see e.g., FIG. 37a). The penultimate glycine in 2A peptides is invariant (see e.g., FIG. 37b) and any mutation leads to defective ribosome skipping. The codon for the G18R residue (AGG) is in a dsRNA hairpin with the high affinity MS2-C motif, which acts as a substrate for targeted MCP-ADAR. In the absence of ADAR editing, the defective T2A sequence will lead to the topological sequestering of the Gal4-VP64 transcription factor in the ER lumen due to the fusion to the secreted HaloTag (see e.g., FIG. 37c). Upon ADAR editing of the Arg18 codon to glycine (AGG to IGG), the T2A regains the function of ribosome skipping. This leads to the protein domains downstream of the T2A sequence to be translated as a separate polypeptide in the cytoplasm, whereby the GAL4-VP64 transcription factor translocate to the nucleus and turn on the expression of a fluorescent H2B-mCherry reporter (see e.g., FIG. 37c).
To test this, an in-house clonal HEK293FT cell line that contains an integrated UAS-H2B-mCherry reporter was co-transfected with the editable T2A (also called T2A*) construct (3 ng, 0.3 ng and 0.03 ng) and cither MCP-dADAR or MCP-ADAR (30 ng). A GAL4-VP64 positive control was also transfected into HEK cells. One day post-transfection, cells were lifted and analyzed by flow cytometry. Transfected cells were gated by TagBFP, the median H2B-mCherry fluorescence for the population was calculated and H2B-mCherry positive populations within the transfected cells were determined by the percentage of cells above 0.5% of non-transfected control cells per replicate (n=3) by FLOWJO.

T2A* construct = assay: Western blot (FLAG) of T2A* construct co-transfected with MCP-ADAR constructs; conditions: 3 ng T2A* and 30 ng ADAR construct; lysates 48 hours later
Procedure: Additionally, the clonal HEK line was co-transfected with 3 ng of the T2A* construct and 30 ng of either filler DNA, MCP-dADAR, or MCP-ADAR. 48 hours later lysates were collected with 1×LDS-PAGE loading buffer (THERMOFISHER) on ice. The samples were sonicated, centrifuged, and boiled at 70° C. for 10 min after the addition of 1×Reducing Agent (THERMOFISHER). The samples were run on a 4%-12% bis-tris polyacrylamide gel at 175V for 45 minutes, and the samples were transferred onto a nitrocellulose membrane using the IBLOT (THERMOFISHER). Samples were probed for FLAG tag (Direct-Blot™ HRP anti-[…] Tag Antibody, “[…]” is disclosed as SEQ ID NO: 406) and GAPDH-loading control (Direct-Blot™ HRP anti-GAPDH Antibody) respectively.

MCP-linker-ADAR2(E488Q)-TagBFP [MCP-ADAR]
effect on translational efficiency from a native AUG start codon, MS2-A substrate (AUA reporter): more modest negative effect on translational efficiency
increase of relative fluorescence, MS2-C w/ AUA reporter, relative to NT (AUA reporter): not significant
relative EGFPd2/dTomato fluorescence, MS2-A w/ AUA substrate (AUA reporter): significant increase
relative fluorescence (EGFPd2-to-dTomato) of MS2-C reporters compared with filler DNA (NT) (AUA reporter; 2-Way ANOVA): significantly decreased the relative fluorescence
population expressing any H2B-mCherry compared to dADAR, 0.03 ng T2A* (T2A (G18R) construct; 0.03 ng T2A* construct): significantly higher
population expressing any H2B-mCherry compared to dADAR, 0.3 ng T2A* (T2A (G18R) construct; 0.3 ng T2A* construct): significantly higher
median H2B-mCherry expression compared to inactive MCP-dADAR control (T2A (G18R) construct; 3 ng T2A* construct, one day post-transfection): significant increase
FLAG staining of the main HaloTag-T2A*-FLAG-Gal4-VP64 fusion product (~67 kDa) (T2A* construct): reduced staining
